Where two headings read alike, the source gives them in different places.
Target: T1, GPR39 receptors on m39-20 cell lines (Mus musculus, UniProt Q5U431, T447P)
T1 construct: P2A-mCherry (C); expressed in transfected cells
T1 sequence (Q5U431 1-456 T447P): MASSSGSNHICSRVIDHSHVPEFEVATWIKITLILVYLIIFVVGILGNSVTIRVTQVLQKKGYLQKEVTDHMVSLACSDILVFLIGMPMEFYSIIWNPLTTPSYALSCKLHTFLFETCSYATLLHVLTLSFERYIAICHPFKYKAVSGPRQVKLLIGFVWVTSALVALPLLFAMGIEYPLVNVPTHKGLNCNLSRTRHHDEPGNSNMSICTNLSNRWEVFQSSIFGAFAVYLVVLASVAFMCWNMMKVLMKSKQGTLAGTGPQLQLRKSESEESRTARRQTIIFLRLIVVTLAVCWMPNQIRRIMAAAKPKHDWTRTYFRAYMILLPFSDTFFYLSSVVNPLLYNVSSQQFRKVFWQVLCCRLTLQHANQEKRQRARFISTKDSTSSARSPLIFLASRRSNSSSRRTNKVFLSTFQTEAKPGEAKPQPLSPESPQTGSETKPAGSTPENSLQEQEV
Test: FLIPR calcium imaging on m39-20 cell lines stably expressing murine-derived GPR39
Type: cell-based
Settings: for Bile acid + 4 μM zinc ions Efficacy / Only bile acid Efficacy: activation efficacy; for intracellular calcium signals in m39-20 cell lines: FIG. 1; for change of activation efficacy after the addition of zinc ions: Table 1, FIG. 2
Source text: Intracellular calcium imaging is a routine technique to study cell functions, the basic principle of which is to detect the concentration of the calcium ion in tissues or cells using a calcium indicator, thereby reflecting certain reactions in the tissues or cells. In the present application, the intracellular calcium released from a cell line that stably or transiently expresses GPR39 is detected using Fluo8-AM, a calcium fluorescent indicator, so as to determine the activation of the GPR39 receptor by the bile acid and derivative thereof.
HEK293T cells (purchased from ATCC) were seeded in a 6-well plate (coming Co.) at an appropriate density (about 0.5-2×10^5/well). When the cell density reached above 30%, the plasmid PLVXK-mGPR39-P2A-mCherry was transfected with Lipofectamine 3000 (Invitrogen) at a concentration of 2 μg per well. The cells were passaged 24 hours after transfection, the puromycin (gibco) was added into the medium at a concentration of 2 μg/mL for antibiotic screening of cells. After 2-4 days of continuous screening, the cells screened for puromycin resistance were trypsinized and screened by flow cytometry for monoclones with red fluorescence. And these monoclones were seeded in a 96-well plate and cultured in a medium without puromycin for around 10 days. Cell colonies with red fluorescence were sorted under a fluorescence microscope, trypsinized and then passaged and expanded in a 6-well plate. Cell lines m39-20 stably expressing murine-derived GPR39 were obtained through the above methods.
Calcium dye Fluo8-AM (ATT bioquest Co.) was dissolved in DMSO solvent to formulate a stock solution of 1 μg/μL. […] After then, the calcium dye working solution was replaced with the 4K solution (50 μL per well), and acclimated for 5 min at room temperature for the subsequent calcium imaging experiment.
Bile acids and derivatives thereof as listed in Table 1 below were dissolved in dimethyl sulfoxide (DMSO, Sigma Co.) solvent to formulate a stock solution of 50 mM, which was stored at −20° C. During calcium imaging with FLIPR, the drug was diluted with the above 4K solution into a working concentration of 400 μM, and packaged into another 96-well plate. […] The instrument parameters were set so that 50 μL of the drug solution may be added into the culture wells within 2 s. The fluorescence recording result within the first 30 seconds was used as the baseline value. The FLIPR robot arm was programmed to automatically add bile acids and derivatives thereof into the cell sample culture wells at the 31st second. 1% of DMSO solvent was used as the blank control.
After that, the calcium dye working solution was replaced with a 4K solution containing 4 μM zinc ions (50 μL per well), followed by acclimation for 5 min at room temperature.

[1] = Bile acid + 4 μM zinc ions EC50, m39-20 cells, 4 μM zinc ions
[2] = m39-20 cells, no zinc ions, read-out: Only bile acid EC50
[3] = m39-20 cells, no zinc ions, read-out: EC50 Only agonist
[4] = Only bile acid EC50, m39-20 cells, no zinc ions

SMILES | EC50 [1] [µM] | Bile acid + 4 μM zinc ions Efficacy (m39-20 cells, 4 μM zinc ions) [%] | Only bile acid Efficacy (m39-20 cells, no zinc ions) [%] | EC50 [2] [µM] | intracellular calcium signals in m39-20 cell lines | change of activation efficacy after the addition of zinc ions (m39-20 cells) | EC50 (EC50 Agonist + 4 μM zinc ions, m39-20 cells, 4 μM zinc ions) [µM] | EC50 [3] [µM] | EC50 (read-out: EC50 Agonist + 4 μM zinc ions, m39-20 cells, 4 μM zinc ions) [µM] | EC50 [4] [µM]
C[C@H](CCC(=O)O)[C@H]1CC[C@H]2[C@@H]3[C@@H](O)C[C@@H]4C[C@H](O)CC[C@]4(C)[C@H]3CC[C@]12C [UDCA, Ursodeoxycholic acid] | > 100 | 58.5 ± 4 | 0 | > 200 | – | – | – | – | – | –
C[C@H](CCC(=O)NCCS(=O)(=O)O)[C@H]1CC[C@H]2[C@@H]3CC[C@@H]4C[C@H](O)CC[C@]4(C)[C@H]3C[C@H](O)[C@]12C [TDCA] | 27.6 ± 7.1 | 99.3 ± 1.7 | 22.8 ± 3 | > 200 | varying extents of intracellular calcium signals | obviously improved | – | – | – | –
C[C@H](CCC(=O)NCC(=O)O)[C@H]1CC[C@H]2[C@@H]3[C@H](O)C[C@@H]4C[C@H](O)CC[C@]4(C)[C@H]3C[C@H](O)[C@]12C [GCA] | > 100 | 20 ± 2.7 | 0 | > 200 | varying extents of intracellular calcium signals | obviously improved | – | – | – | –
C[C@H](CCC(=O)NCC(=O)O)[C@H]1CC[C@H]2[C@@H]3CC[C@@H]4C[C@H](OS(=O)(=O)O)CC[C@]4(C)[C@H]3C[C@H](O)[C@]12C [GDCAS] | > 100 | 58.5 ± 4.8 | 0 | > 200 | varying extents of intracellular calcium signals | obviously improved | – | – | – | –
CNc1nc(NCc2ccc(NS(C)(=O)=O)cc2Cl)cc(-c2ccccn2)n1 [TG-G 1008, reference compound] | – | – | – | – | – | – | 1.5 | 39 | – | –
CCCCCCCCC=CCCCCCCCC(=O)OCC(CO)OC(=O)CCCCCCCC=CCCCCCCCC (centres unmarked) [TM-N 1324, reference compound] | – | – | – | – | – | – | – | 42.9 | 3.5 | –
C[C@H](CCC(=O)NCC(=O)O)[C@H]1CC[C@H]2[C@@H]3[C@H](O)C[C@@H]4C[C@H](O)CC[C@]4(C)[C@H]3CC[C@]12C [GCDCA] | 80.6 ± 3.6 | 91.2 ± 4.4 | 16.5 ± 2.4 | > 200 | varying extents of intracellular calcium signals | obviously improved | – | – | – | –
C[C@H](CCC(=O)NCCS(=O)(=O)O)[C@H]1CC[C@H]2[C@@H]3[C@@H](O)C[C@@H]4C[C@H](OS(=O)(=O)O)CC[C@]4(C)[C@H]3CC[C@]12C [TUDCAS] | > 100 | 31.4 ± 3.2 | 0 | > 200 | varying extents of intracellular calcium signals | obviously improved | – | – | – | –
C[C@H](CCC(=O)NCC(=O)O)[C@H]1CC[C@H]2[C@@H]3[C@@H](O)C[C@@H]4C[C@H](O)CC[C@]4(C)[C@H]3CC[C@]12C [GUDCA] | > 100 | 35.3 ± 6.8 | 0 | > 200 | varying extents of intracellular calcium signals | obviously improved | – | – | – | –
C[C@H](CCC(=O)NCCS(=O)(=O)O)[C@H]1CC[C@H]2[C@@H]3CC[C@@H]4C[C@H](O)CC[C@]4(C)[C@H]3CC[C@]12C [TLCA] | 8.1 ± 2.4 | 103.5 ± 1.1 | 47.8 ± 1.1 | 44 ± 10 | varying extents of intracellular calcium signals | – | – | – | – | –
C[C@H](CCC(=O)NCCS(=O)(=O)O)[C@H]1CC[C@H]2[C@@H]3[C@H](O)C[C@@H]4C[C@H](OS(=O)(=O)O)CC[C@]4(C)[C@H]3CC[C@]12C [TCDCAS] | > 100 | 39.7 ± 3.3 | 0 | > 200 | varying extents of intracellular calcium signals | obviously improved | – | – | – | –
C[C@H](CCC(=O)NCC(=O)O)[C@H]1CC[C@H]2[C@@H]3CC[C@@H]4C[C@H](O)CC[C@]4(C)[C@H]3C[C@H](O)[C@]12C [GDCA] | 46 ± 10.3 | 86.4 ± 6.3 | 7.7 ± 1.7 | > 200 | varying extents of intracellular calcium signals | obviously improved | – | – | – | –
C[C@H](CCC(=O)NCC(=O)O)[C@H]1CC[C@H]2[C@@H]3[C@H](O)C[C@@H]4C[C@H](OS(=O)(=O)O)CC[C@]4(C)[C@H]3CC[C@]12C [GCDCAS] | > 100 | 58.6 ± 2 | 0 | > 200 | varying extents of intracellular calcium signals | obviously improved | – | – | – | –
C[C@H](CCC(=O)NCC(=O)O)[C@H]1CC[C@H]2[C@@H]3CC[C@@H]4C[C@H](O)CC[C@]4(C)[C@H]3CC[C@]12C [GLCA] | 13.5 ± 3.4 | 74 ± 4.1 | 0 | – | varying extents of intracellular calcium signals | obviously improved | – | – | – | > 200
C[C@H](CCC(=O)NCCS(=O)(=O)O)[C@H]1CC[C@H]2[C@@H]3[C@H](O)C[C@@H]4C[C@H](O)CC[C@]4(C)[C@H]3C[C@H](O)[C@]12C [TCA] | > 100 | 31.8 ± 3 | 0 | – | varying extents of intracellular calcium signals | obviously improved | – | – | – | > 200
C[C@H](CCC(=O)O)[C@H]1CC[C@H]2[C@@H]3[C@H](O)C[C@@H]4C[C@H](O)CC[C@]4(C)[C@H]3C[C@H](O)[C@]12C [CA, Cholic acid] | 49.2 ± 3.3 | 99.3 ± 2.1 | 0 | > 200 | – | – | – | – | – | –
